The values below come from ChEMBL document CHEMBL1129765, “Azonia derivatives of the -carboline system. A new class of DNA intercalators” (Bioorg Med Chem Lett, 1996).

This experiment deals with HT-29. Nature of the experiment: Compound was tested in vitro to inhibit 50% colon carcinoma HT-29 cell growth after 72 h. The experiment is classed as functional, cell-based. The settings on record: Homo sapiens, HT-29, 72 h.

With `COc1cccc2c1C(=O)c1c(O)c3c(c(O)c1C2=O)C[C@@](O)(C(=O)CO)C[C@@H]3O[C@H]1C[C@H](N)[C@H](O)[C@H](C)O1` [DOXORUBICIN], it took 2500 nM to reach a half-maximal effect (EC50).
